The data set in a line: bioequivalence of solid formulations of Compound 2. Type of data set: in vivo. The settings on record: 250 mg in improved solid formulation (increased binder, e.g. copovidone) versus 400 mg in original formulation. The text has this:
Accordingly, in one aspect, the present technology features a method of treating HCV infection, comprising administering to a patient in need thereof an effective amount of a combination of two or more DAAs. […] The DAAs can be administered at the same or different dosing frequencies. The patient being treated can be a treatment naïve patient, a treatment experienced patient, including, but not limited to, a relapser, an interferon partial responder, or an interferon non-responder; or a patient unable to take interferon. The patient may be infected with, for example and without limitation, HCV genotype 1, such as HCV genotype 1a or HCV genotype 1b; or HCV genotype 2 or 3. The treatment according to this aspect of the technology may also be effective against other HCV genotypes. The DAAs can be administered around the same time or at different times, and can be co-formulated in a single formulation or formulated in different compositions. Each DAA can be selected from HCV protease inhibitors, HCV polymerase inhibitors, or HCV NS5A inhibitors. […]

The structures appear in SMILES notation.

As to `COc1c(-c2ccc3cc(NS(C)(=O)=O)ccc3c2)cc(-n2ccc(=O)[nH]c2=O)cc1C(C)(C)C` [Compound 2, N-(6-(3-tert-butyl-5-(2,4-dioxo-3,4-dihydropyrimidin-1(2H)-yl)-2-methoxyphenyl)naphthalen-2-yl)methanesulfonamide], the bioequivalence of formulations entry is recorded as “bioequivalent”.
